Assay results as given in patent US20190375708A1 (VenatoRx Pharmaceuticals, Inc., priority 2018, published 2019).

Assays:
[1] = test system: HBV replication in HepAD38 cells; assay: Anti-HBV replication assay in HepAD38 cells (QPCR of extracellular HBV DNA); type: cell-based, HBV (genotype D, serotype ayw); conditions: Hepatitis B virus, 168 h, 7 days incubation, extracellular HBV DNA by QPCR, read-out: Anti-HBV EC50
Outline: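 Steps: seed HepAD38 overnight without tetracycline; refresh medium and add 1 log10 serial dilutions ([…]); incubate 7 days at 37 °C; quantify supernatant HBV DNA by QPCR; derive EC50 from a 4-parameter dose-response fit.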

[2] = In vitro cytotoxicity assay (MTT cell viability) in HepG2 cells; type: cell-based, human; conditions: human
Outline: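 HepG2 seeded overnight, then 7-day compound exposure (30 μM–1.0 nM, half-log steps), 37 °C. MTT 3-4 h, DMSO solubilization, A492. % of vehicle → CC50, 4-PL fit.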

SMILES | EC50 [1] [nM] | CC50 at 7 days [2] [nM]
CC(C)(C)NC(=O)C(=O)c1cc(C(=O)Nc2ccc(F)c(C(F)F)c2)c2n1CCCC2 [Example 400, 3-(2-(tert-butylamino)-2-oxoacetyl)-N-(3-(difluoromethyl)-4-fluorophenyl)-5,6,7,8-tetrahydroindolizine-1-carboxamide] | 50 to 499 | > 30000
Cc1cc(NC(=O)c2cc(C(=O)C(=O)N[C@H](C(N)=O)[C@@H](C)O)n3c2CCCC3)ccc1F [Example 401] | > 1000 | > 30000
Cc1cc(NC(=O)c2cc(C(=O)C(=O)NC3(C(F)(F)F)CC3)n3c2CCCC3)ccc1F [Example 402, N-(4-fluoro-3-methylphenyl)-3-(2-oxo-2-((1-(trifluoromethyl)cyclopropyl)amino)acetyl)-5,6,7,8-tetrahydroindolizine-1-carboxamide] | 50 to 499 | > 30000
Cc1cc(NC(=O)c2cc(C(=O)C(=O)NC3(C(F)(F)F)CCC3)n3c2CCCC3)ccc1F [Example 403] | 50 to 499 | > 30000
Cc1cc(NC(=O)c2cc(C(=O)C(=O)NC3(C)CC(F)(F)C3)n3c2CCCC3)ccc1F [Example 404, 3-(2-((3,3-difluoro-1-methylcyclobutyl)amino)-2-oxoacetyl)-N-(4-fluoro-3-methylphenyl)-5,6,7,8-tetrahydroindolizine-1-carboxamide] | 50 to 499 | > 30000
Cc1cc(NC(=O)c2cc(C(=O)C(=O)NC3(C)COC3)n3c2CCCC3)ccc1F [Example 405, N-(4-fluoro-3-metthylphenyl)-3-(2-((3-methyloxetan-3-yl)amino)-2-oxoacetyl)-5,6,7,8-tetrahydroindolizine-1-carboxamide] | 50 to 499 | > 30000
Cc1cc(NC(=O)c2cc(C(=O)C(=O)NC(C)(C)C(N)=O)n3c2CCCC3)ccc1F [Example 406] | 500 to 1000 | > 30000
Cc1cc(NC(=O)c2cc(C(=O)C(=O)N[C@@H](C)C(F)(F)F)n3c2CCCC3)ccc1F [Example 407, (S)-N-(4-fluoro-3-methylphenyl)-3-(2-oxo-2-((1,1,1-trifluoropropan-2-yl)amino)acetyl)-5,6,7,78-tetrahydroindolizine-1-carboxamide] | 50 to 499 | > 30000
Cc1cc(NC(=O)c2cc(C(=O)C(=O)N[C@H](C)C(F)(F)F)n3c2CCCC3)ccc1F [Example 408, (R)-N-(4-fluoro-3-methylphenyl)-3-(2-oxo-2-((1,1,1-trifluoropropan-2-yl)amino)acetyl)-5,6,7,8-tetrahydroindolizine-1-carboxamide] | 50 to 499 | > 30000
Cc1cc(NC(=O)c2cc(C(=O)C(=O)NC(C)(C)C(F)(F)F)n3c2CCCC3)ccc1F [Example 409, N-(4-fluoro-3-methylphenyl)-3-(2-oxo-2-((1,1,1-trifluoro-2-methylpropan-2-yl)amino)acetyl)-5,6,7,8-tetrahydroindolizine-1-carboxamide] | 50 to 499 | > 30000
Cc1cc(NC(=O)c2cc(C(=O)C(=O)NC3(CO)CCC3)n3c2CCCC3)ccc1F [Example 410, N-(4-fluoro-3-methylphenyl)-3-(2-((1-(hydroxymethyl)cyclobutyl)amino)-2-oxoacetyl)-5,6,7,8-tetrahydroindolizine-1-carboxamide] | 50 to 499 | > 30000
Cc1cc(NC(=O)c2cc(C(=O)C(=O)NC(C)(C)CO)n3c2CCCC3)ccc1F [Example 411, N-(4-fluoro-3-methylphenyl)-3-(2-((1-hydroxy-2-methylpropan-2-yl)amino)-2-oxoacetyl)-5,6,7,8-tetrahydroindolixzine-1-carboxamide] | 50 to 499 | > 30000
Cc1cc(NC(=O)c2cc(C(=O)C(=O)NC(C)C)n3c2CCCC3)ccc1F [Example 412, N-(4-fluoro-3-methylphenyl)-3-(2-(isopropylamino)-2-oxoacetyl)-5,6,7,8-tetrahydroindolizine-1-carboxamide] | 50 to 499 | 5000 to 30000
Cc1cnc(C(C)(C)NC(=O)C(=O)c2cc(C(=O)Nc3ccc(F)c(C)c3)c3n2CCCC3)s1 [Example 413, N-(4-fluoro-3-methylphenyl)-3-(2-((2-(5-methylthiazol-2-yl)propan-2-yl)amino)-2-oxoacetyl)-5,6,7,8-tetrahydroindolizine-1-carboxamide] | 50 to 499 | > 30000
Cc1noc(C(C)NC(=O)C(=O)c2cc(C(=O)Nc3ccc(F)c(C)c3)c3n2CCCC3)n1 (stereo not shown) [Example 414, N-(4-fluoro-3-methylphenyl)-3-(2-((1-(3-cmethyl-1,2,4-oxadiazol-5-yl)ethyl)amino)-2-oxoacetyl)-5,6,7,8-tetrahydroindolizine-1-carboxamide] | 50 to 499 | > 30000
Cc1cc(NC(=O)c2cc(C(=O)C(=O)NC[C@@H](O)CO)n3c2CCCC3)ccc1F [Example 415, (R)-3-(2-((2,3-dihydroxypropyl)amino)-2-oxoacetyl)-N-(4-fluoro-3-methylphenyl)-5,6,7,8-tetrahydroindolizine-1-carboxamide] | > 1000 | > 30000
Cc1cc(NC(=O)c2cc(C(=O)C(=O)NC[C@H](O)CO)n3c2CCCC3)ccc1F [Example 416, (S)-3-(2-((2,3-dihydroxypropyl)amino)-2-oxoacetyl)-N-(4-fluoro-3-methylphenyl)-5,6,7,8-tetrahydroindolizine-1-carboxamide] | > 1000 | > 30000
Cc1cc(NC(=O)c2cc(C(=O)C(=O)N[C@@H](CO)[C@H](C)O)n3c2CCCC3)ccc1F [Example 417, 3-(2-(((2S,3S)-1,3-dihydroxybutan-2-yl)amino)-2-oxoacetyl)-N-(4-fluoro-3-methylphenyl)-5,6,7,8-tetrahydroindolizine-1-carboxamide] | 50 to 499 | > 30000
Cc1noc(C2(NC(=O)C(=O)c3cc(C(=O)Nc4ccc(F)c(C)c4)c4n3CCCC4)CC2)n1 [Example 418, N-(4-fluoro-3-methylphenyl)-3-(2-((1-(3-methyl-1,2,4-oxadiazol-5-yl)cyclopropyl)amino)-2-oxoacetyl)-5,6,7,8-tetrahydroidolizine-1-carboxamide] | 50 to 499 | > 30000
Cc1cc(NC(=O)c2cc(C(=O)C(=O)NCC(C)(C)O)n3c2CCCC3)ccc1F [Example 419, N-(4-fluoro-3-methylphenyl)-3-(2-((2-hydroxy-2-methylpropyl)amino)-2-oxoacetyl)-5,6,7,8-tetrahydroindolizine-1-carboxamide] | > 1000 | > 30000
Cc1cc(NC(=O)c2cc(C(=O)C(=O)NC3(CO)CC3)n3c2CCCC3)ccc1F [Example 420, N-(4-fluoro-3-methylphenyl)-3-(2-((1-(hydroxymethyl)cyclopropyl)amino)-2-oxoacetyl)-5,6,7,8-tetrahydroindolizine-1-carboxamide] | 50 to 499 | > 30000
Cc1cc(NC(=O)c2cc(C(=O)C(=O)N3CCc4nc(N)sc4C3)n3c2CCCC3)ccc1F [Example 421, 3-(2-(2-amino-6,7-dihydrothiazolo[5,4-c]pyridin-5(4H)-yl)-2-oxoacetyl)-N-(4-fluoro-3-methylphenyl)-5,6,7,8-tetrahydroindolizine-1-carboxamide] | > 1000 | > 30000
Cc1cc(NC(=O)c2cc(C(=O)C(=O)N[C@@H](C(=O)O)C(C)(C)C)n3c2CCCC3)ccc1F [Example 422, (R)-2-(2-(1-((4-fluoro-3-methylphenyl)carbamoyl)-5,6,7,8-tetrahydroindolizin-3-yl)-2-oxoacetamido)-3,3-dimethylbutanoic acid] | > 1000 | > 30000
CC(C)(CO)NC(=O)C(=O)c1cc(C(=O)Nc2cc(F)c(F)c(F)c2)c2n1CCCC2 [Example 424, 3-(2-((1-hydroxy-2-methylpropan-2-yl)amino)-2-oxoacetyl)-N-(3,4,5-trifluorophenyl)-5,6,7,8-tetrahydroindolizine-1-carboxamide] | 50 to 499 | > 30000
Cc1cc(NC(=O)c2cc(C(=O)C(=O)NC(C)(C)CO)n3c2CCCC3)cc(F)c1F [Example 425, N-(3,4-difluoro-5-methylphenyl)-3-(2-((1-hydroxy-2-methylpropan-2-yl)amino)-2-oxoacetyl)-5,6,7,8-tetrahydroindolizine-1-carboxamide] | 50 to 499 | > 30000
CC(C)(CO)NC(=O)C(=O)c1cc(C(=O)Nc2ccc(F)c(F)c2)c2n1CCCC2 [Example 426, N-(3,4-difluorophenyl)-3-(2-((1-hydroxy-2-methylpropan-2-yl)amino)-2-oxoacetyl)-5,6,7,8-tetrahydroindolizine-1-carboxamide] | 50 to 499 | > 30000
CC(C)(CO)NC(=O)C(=O)c1cc(C(=O)Nc2ccc(F)c(Cl)c2)c2n1CCCC2 [Example 427, N-(3-chloro-4-fluorophenyl)-3-(2-((1-hydroxy-2-methylpropan-2-yl)amino)-2-oxoacetyl)-5,6,7,8-tetrahydroindolizine-1-carboxamide] | 50 to 499 | > 30000
Cc1cc(NC(=O)c2cc(C(=O)C(=O)N[C@H](C)C(C)(F)F)n3c2CCCC3)ccc1F [Example 428, (R)-3-(2-((3,3-difluorobutan-2-yl)amino)-2-oxoacetyl)-N-(4-fluoro-3-methylphenyl)-5,6,7,8-tetrahydroindolizine--1 carboxamide] | 50 to 499 | > 30000
CC(C)(CO)NC(=O)C(=O)c1cc(C(=O)Nc2ccc(F)c(C(F)F)c2)c2n1CCCC2 [Example 429, N-(3-(difluoromethyl)-4-fluorophenyl)-3-(2-((1-hydroxy-2-methylpropan-2-yl)amino)-2-oxoacetyl)-5,6,7,8-tetrahydroindolizine-1-carboxamide] | 50 to 499 | > 30000
